Experimental data from ChEMBL document CHEMBL1136394, “Synthesis and in vivo imaging properties of [11C]befloxatone: a novel highly potent positron emission tomography ligand for mono-amine oxidase-A” (Bioorg Med Chem Lett, 2003).

Columns and labels:
Mus musculus [1] = experiment: Oral effective dose against L-5-hydroxytryptophan induced generalized tremors in mice; Range is 0.1-0.2 mg/Kg; type: functional
[2] = biological target: T1, Amine oxidase [flavin-containing] A (Homo sapiens, UniProt P21397); experiment: Compound was tested for inhibition of MAOA in human brain, heart, liver and duodenum homogenates; Range is 1.9-3.6 nM; type: tissue-based
T1 sequence (P21397 whole entry): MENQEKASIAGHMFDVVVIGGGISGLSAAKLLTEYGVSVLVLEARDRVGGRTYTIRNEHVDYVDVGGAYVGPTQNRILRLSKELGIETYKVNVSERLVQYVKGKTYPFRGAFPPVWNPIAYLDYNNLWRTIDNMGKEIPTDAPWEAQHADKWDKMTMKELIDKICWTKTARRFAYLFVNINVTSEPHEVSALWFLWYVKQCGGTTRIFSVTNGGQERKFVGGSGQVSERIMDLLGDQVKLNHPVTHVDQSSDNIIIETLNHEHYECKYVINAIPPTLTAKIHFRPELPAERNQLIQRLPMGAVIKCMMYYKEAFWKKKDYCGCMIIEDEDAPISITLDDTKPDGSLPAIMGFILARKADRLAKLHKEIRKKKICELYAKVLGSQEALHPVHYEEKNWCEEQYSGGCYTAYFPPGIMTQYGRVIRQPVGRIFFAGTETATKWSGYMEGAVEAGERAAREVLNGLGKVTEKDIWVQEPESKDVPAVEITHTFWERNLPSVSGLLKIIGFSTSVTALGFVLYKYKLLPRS

Mus musculus [3] = experiment: Intravenous effective dose against L-5-hydroxytryptophan induced generalized tremors in mice; type: functional
[4] = biological target: T2, Amine oxidase [flavin-containing] A (Rattus norvegicus, UniProt P21396); experiment: Compound was tested for inhibition of MAOA in rat brain, heart, liver and duodenum homogenates; Range is 1.9-3.6 nM; type: tissue-based
T2 sequence (P21396 whole entry): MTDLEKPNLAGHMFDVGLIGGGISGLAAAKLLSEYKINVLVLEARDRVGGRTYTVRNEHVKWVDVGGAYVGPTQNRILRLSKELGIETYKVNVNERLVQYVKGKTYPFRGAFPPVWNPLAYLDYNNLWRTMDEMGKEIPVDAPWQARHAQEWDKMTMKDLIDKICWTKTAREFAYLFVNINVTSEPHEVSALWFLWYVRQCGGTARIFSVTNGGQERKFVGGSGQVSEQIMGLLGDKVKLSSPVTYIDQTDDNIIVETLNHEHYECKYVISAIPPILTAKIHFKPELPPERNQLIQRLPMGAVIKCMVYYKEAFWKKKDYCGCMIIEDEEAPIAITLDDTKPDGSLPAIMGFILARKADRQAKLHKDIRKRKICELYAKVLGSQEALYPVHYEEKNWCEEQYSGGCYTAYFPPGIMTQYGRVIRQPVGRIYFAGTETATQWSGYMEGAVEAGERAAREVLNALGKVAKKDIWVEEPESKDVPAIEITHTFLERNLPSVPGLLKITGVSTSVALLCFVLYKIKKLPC

Mus musculus [5] = species on record: Mus musculus; experiment: Oral effective dose against phenylethylamine-induced stereotypy in mice; type: functional
[6] = Half life was determined; type: ADME; conditions: rat

With `COC[C@H]1CN(c2ccc(OCC[C@@H](O)C(F)(F)F)cc2)C(=O)O1` [BEFLOXATONE] the ED50 (Mus musculus [1]) was 0.2 mg/kg, the Ri [2] was 1.9 nM and the ED50 (Mus musculus [3]) was 0.07 mg/kg. It also gave a Ri [4] of 1.9 nM, an ED50 (Mus musculus [5]) of 58 mg/kg and a half-life [6] of 20.4 min.
